Data as given in ChEMBL document CHEMBL1201862, “PubChem BioAssay data set” (2004).
Calls of active or inactive are those of the source.

How the values were obtained:
Cytochrome P450 2C19 = Cytochrome P450 2C19 (Homo sapiens, UniProt P33261); test: Cytochrome panel assay with activity outcomes. Panel member name: p450-cyp2c19 Compounds with AC50 equal or less than 10 uM are considered active; format: functional
[1] = tested on: Streptococcus sp. 'group A'; test: Streptococcus pyogenes SK(-)GAS viability under kanamycin – luminescence, BacTiterGlo, confirmation, counter-screen for streptokinase expression inhibitor project, dose response (AID 1900); format: functional, organism-based
Streptokinase A = molecular target: T1, Streptokinase A (Streptococcus pyogenes serotype M1, UniProt P10520); test: viability-normalized secreted streptokinase activity reduction – plasminogen activation absorbance, OD405, dose response (AID 1914); format: functional, Streptococcus pyogenes M1 GAS;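 further: secreted streptokinase activity via plasminogen activation per viability signal from cell pellet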
T1 sequence (P10520 whole entry): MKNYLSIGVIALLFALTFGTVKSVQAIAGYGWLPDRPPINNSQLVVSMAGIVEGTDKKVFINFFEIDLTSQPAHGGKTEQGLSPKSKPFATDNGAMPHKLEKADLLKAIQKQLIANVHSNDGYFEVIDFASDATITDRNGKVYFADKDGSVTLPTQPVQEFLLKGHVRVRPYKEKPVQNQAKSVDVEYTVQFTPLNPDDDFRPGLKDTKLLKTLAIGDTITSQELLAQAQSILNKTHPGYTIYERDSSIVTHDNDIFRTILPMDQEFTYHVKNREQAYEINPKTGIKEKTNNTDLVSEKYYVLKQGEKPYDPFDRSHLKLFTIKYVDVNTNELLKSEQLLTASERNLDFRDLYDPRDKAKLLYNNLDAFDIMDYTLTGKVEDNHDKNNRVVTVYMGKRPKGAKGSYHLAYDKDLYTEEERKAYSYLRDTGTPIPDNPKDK

Streptococcus = test: GAS UMAA2166 growth inhibition – luminescence, BacTiterGlo, counter-screen for streptokinase expression inhibitor project, dose response (AID 1915); format: functional, organism-based;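 further: potency for reduction of bacterial viability or growth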
[2] = molecular target: T2, Rac GTPase-activating protein 1 (Homo sapiens, UniProt Q9H0H5); test: blockers of MgcRacGAP-driven Rac1 GTP hydrolysis – biochemical, ADP Hunter fluorescence, primary and confirmatory, confirmation (AID 624330); format: functional
T2 sequence (Q9H0H5 whole entry): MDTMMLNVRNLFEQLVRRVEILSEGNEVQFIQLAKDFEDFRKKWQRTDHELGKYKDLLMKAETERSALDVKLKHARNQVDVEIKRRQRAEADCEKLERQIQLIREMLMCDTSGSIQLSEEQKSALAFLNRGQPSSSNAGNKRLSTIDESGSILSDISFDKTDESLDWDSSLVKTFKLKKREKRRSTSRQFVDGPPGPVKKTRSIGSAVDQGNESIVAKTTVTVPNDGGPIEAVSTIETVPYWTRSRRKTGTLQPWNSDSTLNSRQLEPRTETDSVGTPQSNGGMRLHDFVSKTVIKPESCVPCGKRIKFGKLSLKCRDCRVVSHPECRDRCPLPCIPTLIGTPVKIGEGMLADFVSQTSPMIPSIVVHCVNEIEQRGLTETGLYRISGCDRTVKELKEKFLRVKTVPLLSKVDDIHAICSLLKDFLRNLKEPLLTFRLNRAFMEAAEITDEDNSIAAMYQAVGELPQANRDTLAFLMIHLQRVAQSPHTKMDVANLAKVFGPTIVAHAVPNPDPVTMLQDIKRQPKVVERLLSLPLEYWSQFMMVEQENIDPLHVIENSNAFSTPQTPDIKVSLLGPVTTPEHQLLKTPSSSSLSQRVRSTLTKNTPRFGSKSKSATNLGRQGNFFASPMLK

Cytochrome P450 2C9 = Cytochrome P450 2C9 (Homo sapiens, UniProt P11712)
Cytochrome P450 1A2 = molecular target: T3, Cytochrome P450 1A2 (Homo sapiens, UniProt P05177);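 further: PubChem cytochrome P450 panel assay, CYP1A2 panel member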
T3 sequence (P05177 whole entry): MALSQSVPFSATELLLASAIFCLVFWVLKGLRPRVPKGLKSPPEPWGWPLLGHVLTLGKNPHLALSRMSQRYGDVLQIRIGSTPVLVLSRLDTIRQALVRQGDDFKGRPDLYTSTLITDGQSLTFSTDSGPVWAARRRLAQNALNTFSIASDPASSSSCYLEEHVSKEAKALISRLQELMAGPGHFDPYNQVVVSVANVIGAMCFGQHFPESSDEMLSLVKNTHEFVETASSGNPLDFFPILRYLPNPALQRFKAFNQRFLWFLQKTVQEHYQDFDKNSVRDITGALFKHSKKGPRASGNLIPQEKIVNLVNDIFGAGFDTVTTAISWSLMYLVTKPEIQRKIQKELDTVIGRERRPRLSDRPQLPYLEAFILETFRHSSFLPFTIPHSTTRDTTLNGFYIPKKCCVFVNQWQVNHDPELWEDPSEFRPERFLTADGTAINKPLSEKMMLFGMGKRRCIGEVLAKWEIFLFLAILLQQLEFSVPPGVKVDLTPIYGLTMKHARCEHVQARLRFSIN

Cytochrome P450 2D6 = Cytochrome P450 2D6 (Homo sapiens, UniProt P10635);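 further: CYP2D6 member of a cytochrome P450 panel assay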
Chain of Cytochrome P450 2D6 (P10635 whole entry): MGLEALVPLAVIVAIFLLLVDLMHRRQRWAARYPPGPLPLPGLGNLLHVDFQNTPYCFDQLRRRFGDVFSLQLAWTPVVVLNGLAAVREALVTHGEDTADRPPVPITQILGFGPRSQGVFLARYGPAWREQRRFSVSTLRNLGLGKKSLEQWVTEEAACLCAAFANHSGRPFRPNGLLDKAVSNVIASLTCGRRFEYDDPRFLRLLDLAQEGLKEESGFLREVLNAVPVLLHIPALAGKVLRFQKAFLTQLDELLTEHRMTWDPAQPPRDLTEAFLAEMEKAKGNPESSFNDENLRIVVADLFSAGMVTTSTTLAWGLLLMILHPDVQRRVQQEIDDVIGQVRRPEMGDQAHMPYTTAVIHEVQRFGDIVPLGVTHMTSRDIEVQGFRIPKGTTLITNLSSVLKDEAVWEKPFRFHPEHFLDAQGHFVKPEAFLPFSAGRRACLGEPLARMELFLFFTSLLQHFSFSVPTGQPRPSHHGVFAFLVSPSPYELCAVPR

Chain of Cytochrome P450 2C9 (P11712 whole entry): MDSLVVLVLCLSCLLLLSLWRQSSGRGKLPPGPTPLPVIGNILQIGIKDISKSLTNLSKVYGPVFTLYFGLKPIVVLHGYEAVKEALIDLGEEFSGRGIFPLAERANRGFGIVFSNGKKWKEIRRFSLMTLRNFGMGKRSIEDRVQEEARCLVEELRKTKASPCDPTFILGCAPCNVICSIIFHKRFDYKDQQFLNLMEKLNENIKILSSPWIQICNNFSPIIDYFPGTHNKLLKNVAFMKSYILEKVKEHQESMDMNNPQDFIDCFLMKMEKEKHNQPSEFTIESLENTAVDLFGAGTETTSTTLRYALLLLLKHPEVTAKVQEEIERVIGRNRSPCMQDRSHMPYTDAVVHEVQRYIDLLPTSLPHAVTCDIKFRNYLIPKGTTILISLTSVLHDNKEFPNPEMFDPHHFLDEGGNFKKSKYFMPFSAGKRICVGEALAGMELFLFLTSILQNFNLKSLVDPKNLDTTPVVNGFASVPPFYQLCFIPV
Chain of Cytochrome P450 2C19 (P33261 whole entry): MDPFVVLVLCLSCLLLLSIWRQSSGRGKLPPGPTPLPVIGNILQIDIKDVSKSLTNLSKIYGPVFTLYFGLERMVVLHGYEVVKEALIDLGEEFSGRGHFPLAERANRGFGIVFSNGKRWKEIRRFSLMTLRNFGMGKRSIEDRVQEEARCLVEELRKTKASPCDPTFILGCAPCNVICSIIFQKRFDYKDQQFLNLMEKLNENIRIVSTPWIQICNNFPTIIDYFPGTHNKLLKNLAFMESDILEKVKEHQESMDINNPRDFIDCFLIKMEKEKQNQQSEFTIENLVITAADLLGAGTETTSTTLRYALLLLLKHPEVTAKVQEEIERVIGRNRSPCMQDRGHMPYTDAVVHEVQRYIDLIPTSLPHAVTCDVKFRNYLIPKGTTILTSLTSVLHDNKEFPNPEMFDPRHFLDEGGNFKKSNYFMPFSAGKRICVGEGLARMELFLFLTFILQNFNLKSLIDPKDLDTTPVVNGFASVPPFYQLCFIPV

SMILES: N=C(N)SCC(=O)O
- AC50 (Cytochrome P450 2C19): inconclusive

SMILES: CC(=O)NC(CCS(C)(=O)=O)C(=O)Nc1c(F)cccc1F (stereo not drawn)
- AC50 (Cytochrome P450 2C19): inconclusive

SMILES: O=C(c1cccs1)N1CCC(c2nc(O)c3nnn(Cc4ccccc4Cl)c3n2)CC1
- EC50 [1]: > 50 µM (not active)
- EC50 (Streptokinase A): > 150 µM (not active)
- EC50 (Streptococcus): > 50 µM (not active)

SMILES: CCOC(=O)c1[nH]c2ccccc2c1N=C(S)Nc1cccc(C)c1
- IC50 [2]: 115 µM (active)

SMILES: O=c1c(-c2ccc(F)cc2)nc2cnc(Oc3ccccc3)nc2n1Cc1cccs1
- AC50 (Cytochrome P450 2C9): 2.51 µM (inconclusive)

SMILES: COc1ccc(C(=O)N2CCC[C@@]3(CCN(CC(C)C)C3)C2)cc1
- AC50 (Cytochrome P450 1A2): 31.6 µM (inconclusive)
- AC50 (Cytochrome P450 2D6): 15.8 µM (inconclusive)

SMILES: COc1cc(/C=C/C(=O)OCC(=O)NCC2CCCCC2)ccc1O
- IC50 [2]: 39.3 µM (active)

SMILES: Cc1ccccc1NC(=O)NCCCCc1ccccc1
- EC50 [1]: > 150 µM (not active)
- EC50 (Streptokinase A): > 150 µM (not active)
- EC50 (Streptococcus): > 150 µM (not active)

SMILES: Cn1cc(-c2nc3cnc(N4CCNCC4)nc3n(CCc3ccccc3)c2=O)c2ccccc21
- AC50 (Cytochrome P450 1A2): 15.8 µM (inconclusive)
- AC50 (Cytochrome P450 2D6): 39.8 µM (inconclusive)

SMILES: Cc1cnc(CNc2ncncc2-c2ccc3c(c2)OCO3)cn1
- AC50 (Cytochrome P450 2D6): 20 µM (inconclusive)

SMILES: CC(C)CN(Cc1cc(=O)oc2cc3c(cc12)CCCC3)CC(C)C
- EC50 [1]: 6.12 µM (active)
- EC50 (Streptokinase A): 5.67 µM (active)
- EC50 (Streptococcus): 21.2 µM (active)

SMILES: N#Cc1ccc(OC(=O)c2ccc(NC(=N)N)cc2)cc1.c1ccncc1
- AC50 (Cytochrome P450 1A2): 2.51 µM (inconclusive)
- AC50 (Cytochrome P450 2D6): 3.16 µM (inconclusive)

SMILES: CCOC(=O)C1CCCN(C(=O)CSCc2ccccc2)C1 (stereo not drawn)
- AC50 (Cytochrome P450 2D6): 15.8 µM (inconclusive)

SMILES: COCCN=C(S)NC1CC2CCCC(C1)N2Cc1cccs1 (stereo not drawn)
- AC50 (Cytochrome P450 2C9): 39.8 µM (inconclusive)

SMILES: CCOC(=O)c1cc2sc(C)cc2n1CC(=O)N1CCN(C(=O)c2ccco2)CC1
- AC50 (Cytochrome P450 1A2): 31.6 µM (inconclusive)
- AC50 (Cytochrome P450 2C9): 20 µM (inconclusive)

SMILES: COc1ccc2[nH]cc(CCNc3ccnc(-c4ccccc4C(F)(F)F)n3)c2c1
- AC50 (Cytochrome P450 2D6): 15.8 µM (inconclusive)

SMILES: O=C(Nc1ncc2c(n1)-c1ccccc1CC2)c1cccc(Cl)c1
- AC50 (Cytochrome P450 1A2): 2.82 µM (inconclusive)
- AC50 (Cytochrome P450 2C9): 20 µM (inconclusive)

SMILES: COc1cc(/C=C2\C(=N)N3N=C(CC(=O)N4CCOCC4)SC3=NC2=O)ccc1O
- IC50 [2]: 159 µM (active)

SMILES: c1cncc(-c2cc(NCc3cccs3)ncn2)c1
- AC50 (Cytochrome P450 2D6): 25.1 µM (inconclusive)

SMILES: O=C(NC(=S)Nc1ccc(-c2nc3ncccc3o2)cc1)c1ccccc1F
- EC50 [1]: 84.3 µM (active)
- EC50 (Streptokinase A): > 150 µM (not active)
- EC50 (Streptococcus): 21.3 µM (active)

SMILES: CCn1c(=S)sc2c(O)nc(SCC(=O)Nc3cc(OC)ccc3OC)nc21
- EC50 [1]: 6.33 µM (active)
- EC50 (Streptokinase A): 17.8 µM (inconclusive)
- EC50 (Streptococcus): > 150 µM (not active)

SMILES: Cc1ccc(-c2ncccc2OC(=O)C23CC4CC(CC(C4)C2)C3)cc1
- AC50 (Cytochrome P450 2D6): 22.4 µM (inconclusive)
- AC50 (Cytochrome P450 2C9): 31.6 µM (inconclusive)

SMILES: COc1ccc(O[C@H]2C=C[C@@H](c3ccccc3)O[C@H]2CO/N=C\C[C@@H]2C=C[C@H](OC(C)=O)[C@H](COC(C)=O)O2)cc1
- AC50 (Cytochrome P450 2C9): 3.16 µM (inconclusive)

SMILES: CC(=O)N1CCN(c2ccccc2NC(=O)COc2ccc(Br)cc2)CC1
- AC50 (Cytochrome P450 2D6): 15.8 µM (inconclusive)

SMILES: O=C(CNC(=O)c1cccs1)NCC(=O)OCc1ccc(Cl)cc1
- AC50 (Cytochrome P450 2C9): 0.126 µM (inconclusive)

SMILES: CCOC(=O)c1oc2cc(O)cc(C)c2c1C
- IC50 [2]: 21 µM (active)

SMILES: Oc1ccc(Cc2ccccc2Cl)c(O)c1
- IC50 [2]: 54.8 µM (active)

SMILES: COc1ccc(C(=O)O[C@H]2CC[C@@]3(C)[C@H]4CC[C@H]5[C@]3(C[C@]3(O)[C@H]6CN7C[C@H](C)CC[C@H]7[C@](C)(O)[C@]6(O)[C@H](O)C[C@]53O)O[C@]24O)cc1OC
- AC50 (Cytochrome P450 2C19): inconclusive

SMILES: CCOC(=O)c1sc(/N=C/c2ccc(O)cc2O)cc1C
- IC50 [2]: 22.4 µM (active)

SMILES: CCOc1cc(/C=N\n2nnnc2N)ccc1O
- IC50 [2]: 32.1 µM (active)

SMILES: COc1ccc(CNc2ncnc3ccc(-c4ccc(N(C)C)cc4)cc23)c(OC)c1
- AC50 (Cytochrome P450 2D6): 25.1 µM (inconclusive)
- AC50 (Cytochrome P450 2C9): 0.398 µM (inconclusive)
